Consider 57 compounds from patent publication US9902728B2, “Pyrrolo and pyrazolopyrimidines as ubiquitin-specific protease 7 inhibitors” (Forma Therapeutics, Inc., priority 2014, dated 2018).

Molecules are shown by their SMILES. Some results are limits rather than exact numbers.

In the first assay the target is T1, USP7 (Homo sapiens, UniProt Q93009).
T1 construct: USP7, construct USP7 (208-1102) 6*His, Viva Biotech; 6xHis (C); purchased Viva Biotech
T1 sequence (Q93009 208-1102): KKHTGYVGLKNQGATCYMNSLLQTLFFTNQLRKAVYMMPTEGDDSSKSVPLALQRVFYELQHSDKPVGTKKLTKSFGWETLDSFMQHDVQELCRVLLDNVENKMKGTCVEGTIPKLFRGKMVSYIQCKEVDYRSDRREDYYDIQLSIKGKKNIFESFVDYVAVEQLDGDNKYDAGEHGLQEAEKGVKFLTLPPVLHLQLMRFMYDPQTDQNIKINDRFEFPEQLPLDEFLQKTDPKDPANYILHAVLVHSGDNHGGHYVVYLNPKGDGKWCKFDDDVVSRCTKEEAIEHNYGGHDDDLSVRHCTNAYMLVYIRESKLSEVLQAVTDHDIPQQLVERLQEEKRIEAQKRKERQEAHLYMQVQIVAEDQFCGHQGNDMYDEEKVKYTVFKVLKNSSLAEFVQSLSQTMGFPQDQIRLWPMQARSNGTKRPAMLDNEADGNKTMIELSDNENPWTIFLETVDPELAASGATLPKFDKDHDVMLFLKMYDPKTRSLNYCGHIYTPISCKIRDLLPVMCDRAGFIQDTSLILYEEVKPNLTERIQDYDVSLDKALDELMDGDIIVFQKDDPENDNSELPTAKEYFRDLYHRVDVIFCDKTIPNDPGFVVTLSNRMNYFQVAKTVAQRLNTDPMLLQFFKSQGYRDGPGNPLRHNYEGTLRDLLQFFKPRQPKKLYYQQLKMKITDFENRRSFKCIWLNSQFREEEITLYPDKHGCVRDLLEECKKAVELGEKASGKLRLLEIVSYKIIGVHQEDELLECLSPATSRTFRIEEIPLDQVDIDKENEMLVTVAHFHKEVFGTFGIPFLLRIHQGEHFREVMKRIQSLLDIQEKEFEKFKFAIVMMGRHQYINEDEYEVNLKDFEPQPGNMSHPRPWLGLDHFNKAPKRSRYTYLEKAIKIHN
The assay can be described thus: USP7 Assay A (Ubitquin-Rhodamine 110 Assay). The settings on record: USP7 activity in USP7 assay A and B (table does not say which assay per compound); read-out: USP7_IC50. In kind it is biochemical. The method in brief:
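Enzyme and compound sat together for 30 min before Ub-Rh110 was added, in buffer of 20 mM Tris-HCl (pH 8.0), 1 mM GSH, 0.03% BGG and 0.01% Triton X-100.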
On to `CC1(C(=O)N2CCC(O)(Cn3cnc4c(cnn4-c4ccc(-n5cc(Cl)cn5)cc4)c3=O)CC2)CC1` [Compound I-1045], for which the IC50 is below 0.2 µM.

For `O=C(c1cnc(N2CCOCC2)o1)N1CCC(O)(Cn2cnc3c(cnn3-c3ccc(-c4ccccc4)cc3)c2=O)CC1` [Compound I-643], the IC50 was 0.2 to 1 µM.

Regarding `O=C(C1CCC(Oc2ncccn2)CC1)N1CCC(O)(Cn2cnc3c(cnn3-c3ccc(F)cc3)c2=O)CC1` (stereo not drawn) [Compound I-748], the IC50 is 0.2 to 1 µM.

With `CC1(C(=O)N2CCC(O)(Cn3cnc4c(cnn4-c4ccc(-n5cc(C(F)(F)F)cn5)cc4)c3=O)CC2)CCC1` [Compound I-1717], the IC50 is below 0.2 µM.

In the case of `CC1(C(=O)N2CCC(O)(Cn3cnc4c(cnn4-c4ccc(-c5cnn(C(F)F)c5)cc4)c3=O)CC2)CCC1` [Compound I-1721], the IC50 is below 0.2 µM.

As for `CN1CC[C@H](Oc2ccc(-c3ccc(-n4ncc5c(=O)n(CC6(O)CCN(C(=O)C7CC7)CC6)cnc54)cc3)cc2)C1` [Compound I-680], the IC50 was 0.2 to 1 µM.

In the case of `O=C(C1CCC(Oc2cccnc2)CC1)N1CCC(O)(Cn2cnc3c(cnn3-c3ccc(F)cc3)c2=O)CC1` (stereo not drawn) [Compound I-749], the IC50 was below 0.2 µM.

`CN1CCN(c2ccn(-c3ccc(-n4ncc5c(=O)n(CC6(O)CCN(C(=O)C7CC7)CC6)cnc54)cc3)n2)CC1` [Compound I-818]: the IC50 was below 0.2 µM.

On to `O=C(c1ccc(F)cc1)N1CCC(O)(Cn2cnc3c(cnn3-c3ccc(-c4cnn(C5COC5)c4)cc3)c2=O)CC1` [Compound I-1615], for which the IC50 is 0.2 to 1 µM.

In the case of `O=C(c1cnc(C2CC2)o1)N1CCC(O)(Cn2cnc3c(cnn3-c3ccc(OCC4(F)CCC4)cc3)c2=O)CC1` [Compound I-981], the IC50 is below 0.2 µM.

Regarding `CN1CCN(c2ccc(-n3ncc4c(=O)n(CC5(O)CCN(C(=O)CC(C(F)F)n6cccn6)CC5)cnc43)cc2)CC1` (stereo not drawn) [Compound I-825], the IC50 was below 0.2 µM.

`CN1CCN(c2ccc(-n3ncc4c(=O)n(CC5(O)CCN(C(=O)C6(C)CC6)CC5)cnc43)cc2)CC1C(F)F` (stereo not drawn) [Compound I-1693]: the IC50 fell in the range of 0.2 to 1 µM.

For the compound `Cc1cc(OC2CCN(C(=O)N3CCC(O)(Cn4cnc5c(cnn5-c5ccc(F)cc5)c4=O)CC3)CC2)no1` [Compound I-922], the IC50 was in the range of 1 to 10 µM.

As to `O=C(c1cnc(C2CC2)o1)N1CCC(O)(Cn2cnc3c(cnn3-c3ccc(-n4cc(CO)cn4)cc3)c2=O)CC1` [Compound I-1684], the IC50 was below 0.2 µM.

Turning to `Cc1ccn(-c2ccc(-n3ncc4c(=O)n(CC5(O)CCN(C(=O)C6(C)COC6)CC5)cnc43)cc2)n1` [Compound I-1711], the IC50 was 1 to 10 µM.

For `Cc1cc2c(=O)n(CC3(O)CCN(C(=O)c4cnc(C5CC5)o4)CC3)cnc2n1-c1ccc(F)cc1` [Compound I-850], the IC50 is 0.2 to 1 µM.

In the case of `O=C(C1CC1)N1CCC(O)(Cn2cnc3c(cnn3-c3ccc(-c4ccc5[nH]ccc5n4)cc3)c2=O)CC1` [Compound I-1768], the IC50 is 0.2 to 1 µM.

As for `O=C(C1CC1)N1CCC(O)(Cn2cnc3c(cnn3-c3ccc(-c4cnn5ccccc45)cc3)c2=O)CC1` [Compound I-1736], the IC50 lay within 0.2 to 1 µM.

On to `O=C(C1CC1)N1CCC(O)(Cn2cnc3c(ccn3-c3cccc(CN4CCCCC4)c3)c2=O)CC1` [Compound I-1009], for which the IC50 fell in the range of 1 to 10 µM.

On to `CNC1CCN(c2ccc(-c3ccc(-n4ncc5c(=O)n(CC6(O)CCN(C(=O)C7CC7)CC6)cnc54)cc3)cn2)C1` (stereo not drawn) [Compound I-845], for which the IC50 was below 0.2 µM.

For `CC1(C(=O)N2CCC(O)(Cn3cnc4c(cnn4-c4ccc(F)cc4)c3=O)CC2)CCC(Oc2ccccn2)CC1` (stereo not drawn) [Compound I-746], the IC50 fell in the range of 1 to 10 µM.

For the compound `O=C(C[C@H](C(F)F)n1ccc(F)n1)N1CCC(O)(Cn2cnc3c(cnn3-c3cccc(N4CCOCC4)c3)c2=O)CC1` [Compound I-788], the IC50 lay in the range of 1 to 10 µM.

`O=C(c1cnc(Oc2ccccn2)o1)N1CCC(O)(Cn2cnc3c(cnn3-c3ccc(Cl)cc3)c2=O)CC1` [Compound I-1086]: the IC50 was 1 to 10 µM.

On to `O=C(c1cnc(C2CC2)o1)N1CCC(O)(Cn2cnc3c(cnn3-c3ccc(OC4CCC(F)(F)CC4)cc3)c2=O)CC1` [Compound I-817], for which the IC50 is below 0.2 µM.

`CC1(C(=O)N2CCC(O)(Cn3cnc4c(cnn4-c4ccc(-c5cnn(C6CCOCC6)c5)cc4)c3=O)CC2)CC1` [Compound I-1722]: the IC50 was below 0.2 µM.

Consider `Cc1ncc(C(=O)N2CCC(O)(Cn3cnc4c(cnn4-c4ccc(OC5CCC(F)(F)CC5)cc4)c3=O)CC2)o1` [Compound I-1134], for which the IC50 was in the range of 0.2 to 1 µM.

Take `Cn1ccc2c(=O)n(CC3(O)CCN(C(=O)CC(C(F)F)n4ccc(F)n4)CC3)cnc21` (single isomer, unassigned) [Compound I-1696]: the IC50 was above 10 µM.

Consider `O=C(C1CC1)N1CCC(O)(Cn2cnc3c(cnn3-c3ccc(-c4ccc(N5CC[C@H](O)C5)nc4)cc3)c2=O)CC1` [Compound I-686], for which the IC50 fell in the range of 0.2 to 1 µM.

With `CN1CC2CCC(C1)N2c1ccc(C(=O)N2CCC(O)(Cn3cnc4c(cnn4-c4ccc(F)cc4)c3=O)CC2)cc1` [Compound I-1681], the IC50 lay within 1 to 10 µM.

Consider `Cc1cc(OC2CCC(C(=O)N3CCC(O)(Cn4cnc5c(cnn5-c5ccc(F)cc5)c4=O)CC3)CC2)no1` (stereo not drawn) [Compound I-755], for which the IC50 was 0.2 to 1 µM.

For the compound `O=C(C1CCC(Oc2cnccn2)CC1)N1CCC(O)(Cn2cnc3c(cnn3-c3ccc(F)cc3)c2=O)CC1` (stereo not drawn) [Compound I-1113], the IC50 is below 0.2 µM.

For the compound `O=C(C[C@@H](C(F)F)n1ccc(F)n1)N1CCC(O)(Cn2cnc3c(cnn3-c3ccc(Cl)cc3)c2=O)CC1` [Compound I-1166], the IC50 was below 0.2 µM.

Regarding `O=C(c1ccc(F)cc1)N1CCC(O)(Cn2cnc3c(cnn3-c3ccc(OCC4(F)CCC4)cc3)c2=O)CC1` [Compound I-696], the IC50 was 0.2 to 1 µM.

`O=C(C[C@@H](C(F)F)n1ccc(Cl)n1)N1CCC(O)(Cn2cnc3c(cnn3-c3ccc(F)cc3)c2=O)CC1` [Compound I-732]: the IC50 lay within 1 to 10 µM.

The same assay, now with this note: USP7 assay A and B (table does not say which assay per compound); Ubiquitin-Rhodamine 110 substrate; read-out: USP7_IC50.
For the compound `C[C@H](CC(=O)N1CCC(O)(Cn2cnc3c(cnn3C(C)(C)C)c2=O)CC1)c1ccccc1` [Compound I-59], the IC50 fell in the range of 0.2 to 1 µM.

The same assay, now with this note: USP7 assay A and B (table does not say which assay per compound); read-out: USP7_IC50.
On to `C#CC(=O)N[C@@H]1CC[C@@H]1C(=O)N1CCC(O)(Cn2cnc3c(cnn3-c3ccc(F)cc3)c2=O)CC1` [Compound I-952], for which the IC50 is 0.2 to 1 µM.

In the case of `O=C(C1CC1)N1CCC(O)(Cn2cnc3c(cnn3-c3ccc(NCCc4ccccc4)cc3)c2=O)CC1` [Compound I-1187], the IC50 fell in the range of 1 to 10 µM.

In the case of `O=C(Nc1ccc(-n2ncc3c(=O)n(CC4(O)CCN(C(=O)C5CC5)CC4)cnc32)cc1)N1CCCC1` [Compound I-1499], the IC50 was in the range of 1 to 10 µM.

Regarding `COc1cccc(-n2ncc3c(=O)n(CC4(O)CCN(C(=O)c5ccc(F)cc5)CC4)cnc32)c1` [Compound I-621], the IC50 was in the range of 1 to 10 µM.

Take `Cc1ccc(-n2ncc3c(=O)n(CC4(O)CCN(C(=O)c5ccc(OC6CCC(O)CC6)cc5)CC4)cnc32)cc1` (stereo not drawn) [Compound I-1141, 5-((4-Hydroxy-1-(4-(4-hydroxycyclohexyloxy)benzoyl)piperidin-4-yl)methyl)-1-p-tolyl-1H-pyrazolo[3,4-d]pyrimidin-4 (5H)-one]: the IC50 is 1 to 10 µM.

On to `Nc1cccc(-n2ncc3c(=O)n(CC4(O)CCN(C(=O)C5CC5)CC4)cnc32)c1` [Compound I-964], for which the IC50 was 1 to 10 µM.

For `CC(C)n1ncc2c(=O)n(CC3(O)CCN(C(=O)c4ccc(Oc5ccccc5)cc4)CC3)cnc21` [Compound I-62], the IC50 is above 10 µM.

`CO[C@]1(C)CCN(c2cc(-n3ncc4c(=O)n(CC5(O)CCN(C(=O)C6CC6)CC5)cnc43)ccc2F)C1` [Compound I-972]: the IC50 was 1 to 10 µM.

Turning to `C[C@H](CC(=O)N1CCC(O)(Cn2cnc3c(cnn3-c3ccc(F)cc3)c2=O)CC1)c1ccccc1` [Compound I-65], the IC50 was below 0.2 µM.

On to `C[C@@H](CC(=O)N1CCC(O)(Cn2cnc3c(cnn3-c3ccc(F)cc3)c2=O)CC1)n1ncc2c1CCC2` [Compound I-521], for which the IC50 was above 10 µM.

As for `Cn1ncc2c(=O)n(CC3(O)CCN(C(=O)c4ccc(NS(=O)(=O)c5ccccc5)cc4)CC3)cnc21` [Compound I-111], the IC50 lay within 1 to 10 µM.

As for `O=C(C[C@H](c1ccccc1)C(F)F)N1CCC(O)(Cn2cnc3c(cnn3-c3ccccc3)c2=O)CC1` [Compound I-1104], the IC50 was in the range of 1 to 10 µM.

Turning to `C[C@H](CC(=O)N1CCC(O)(Cn2cnc3c(cnn3-c3ccccc3)c2=O)CC1)n1cccn1` [Compound I-175], the IC50 was below 0.2 µM.

As to `O=C(c1ccc(Oc2ccccn2)cc1)N1CCC(O)(Cn2cnc3c(cnn3-c3ccc(F)cc3)c2=O)CC1` [Compound I-538], the IC50 lay in the range of 1 to 10 µM.

For the compound `COc1ccc(OC)c(C(=O)N2CCC(O)(Cn3cnc4c(cnn4-c4ccccc4)c3=O)CC2)c1` [Compound I-221], the IC50 fell in the range of 1 to 10 µM.

On to `COCCN(C)Cc1cccc(-n2ncc3c(=O)n(CC4(O)CCN(C(=O)C5CC5)CC4)cnc32)c1` [Compound I-449], for which the IC50 fell in the range of 1 to 10 µM.

As for `O=C(c1ccc(Cl)cc1Cl)N1CCC(O)(Cn2cnc3c(cnn3-c3ccc(F)cc3)c2=O)CC1` [Compound I-317], the IC50 lay in the range of 0.2 to 1 µM.

In the case of `Cc1nc(C)c(C(=O)N2CCC(O)(Cn3cnc4c(cnn4-c4ccccc4)c3=O)CC2)s1` [Compound I-230], the IC50 lay within 1 to 10 µM.

With `CN(Cc1ccccc1)c1ccc(C(=O)N2CCC(O)(Cn3cnc4c(cnn4C)c3=O)CC2)cc1` [Compound I-119], the IC50 was in the range of 0.2 to 1 µM.

Regarding `CN1CCN(c2ccc(-n3ncc4c(=O)n(CC5(O)CCN(C(=O)c6ccccc6)CC5)cnc43)cc2F)CC1` [Compound I-970], the IC50 lay within 1 to 10 µM.

`Cc1ccc(-n2ncc3c(=O)n(CC4(O)CCN(C(=O)c5ccc(Oc6ccccc6)cc5)CC4)cnc32)cc1` [Compound I-69]: the IC50 lay within 0.2 to 1 µM.

On to `O=C(C1CC1)N1CCC(O)(Cn2cnc3c(cnn3-c3ccc(-c4ccc(O[C@H]5CCNC5)cc4)cc3)c2=O)CC1` [Compound I-841], for which the IC50 was in the range of 0.2 to 1 µM.
